Measurements from patent US20230094922A1, “METHODS OF THERAPEUTIC PROGNOSTICATION” (GENETIKAPLUS LTD., priority 2020, published 2023).

System: iPSC-derived cortical neurons
Test: Pre- and post-synaptic marker (Synapsin, PSD95) puncta and colocalization imaging analysis
Assay type: cell-based, human
Conditions: for intact synapses (colocalization of pre- and post-synaptic terminals), treated vs untreated: 7 days after treatment (Bupropion also 3 days)
Protocol: iPSC differentiation into neurons-iPSCs were seeded at a density of 3×10^6 cells/well on a hESC-qualified Matrigel pre-coated 6-well plate and incubated at 37° C., 5% CO2 overnight. Differentiation was initiated the following day (day 0) after verifying that 100% confluency was reached. Differentiation media was added daily according to the following order: […]7 (day 15 onward) similar to a previously published protocol developed by for rapid differentiation to cortical neurons. The components of the described media, Q1-7, are provided in Appendix 1. Cells were assessed for differentiation efficiency and cell death on a daily basis. On day 9, differentiated neurons were re-plated on either 96-well plates (destined for staining) or 12-well plates (destined for RNA extraction) that were coated with 15 μg/mL Poly-ornithine diluted in PBS (overnight incubation at 37° C.), followed by 1 μg/mL Laminin and 2 μg/mL Fibronectin diluted in PBS (overnight incubation at 37° C.): Neurons were first rinsed with pre-warmed PBS and 1 ml/well of Accutase was added for 35 minutes at 37° C., 5% CO2. DNAse1 (0.5 mg/mL) was then added for 10 additional minutes. 3 ml of pre-warmed Neurobasal media was added to each well and neurons were gently collected using a 5 ml […]. Wells were then verified for the presence of any remaining neurons. Neurons were spun down and resuspended in Q6 media. Neurons were seeded at a density of 150,000 cells/cm^2 placed back at 37° C. Following four hours of incubation, media was changed to Q6 media (150 μl per 96-well and 1 ml per 12-well). […] For dendritic arborization analysis, pre/post-synaptic markers and colocalization analysis; α-Syn, PSD95 and MAP2 primary antibodies were used. Following washes, fluorophore-coupled secondary antibodies were incubated in the blocking solution for 1 hour at room temperature. The cells were counter-stained with 4',6-diamidino-2-phenylindole (DAPI) for nuclei detection for 15 minutes at room temperature followed by washes with PBS. Imaging was performed using Nikon Spinning Disk Confocal microscope. For imaging of pre- and post-synaptic markers, images were acquired with a 100× objective in z-stacks. For dendritic arborization analysis, images were acquired with a 20× objective in z-stacks. For imaging of dendritic spines, during culture treatment described in materials and methods, cells were infected at Day 20 with human syn-GFP or mKate virus and stained for GFP or mKate. Cells were fixed as described at day 35 and stained with antibodies against GFP or mKate respectively. Images were acquired using the Nikon Confocal Alit with a 60× objective and a 2× digital zoom in z-stacks and using the Nikon spinning disk Microscope with a 100× objective in z-stacks. Neuronal and synaptic morphology was assessed using the Neurolucida software, pre- and post-synaptic marker analysis was performed using CellProfiler and total dendritic length was measured using Fiji software. Immunohistochemical examination was carried out on the induced neuronal cells.

In the case of `CNCCC=C1c2ccccc2CCc2ccccc21` [Nortriptyline, 1-Propanamine, 3-(10,11-dihydro-5H-dibenzo[a,d]cyclohepten-5-ylidene)-N-methyl-], the “density of post-synaptic terminals (PSD95 puncta), responders vs non-responders” value (after treatment) is reported as “increase in density was also present”, the “intact synapses, responders vs non-responders” value (after treatment) is reported as “significantly more intact synapses” and the “intact synapses (colocalization of pre- and post-synaptic terminals), treated vs untreated” value (neurons from non-responders) is reported as “no change or even a slight decrease”. For the same compound, the “density of post-synaptic terminals (distance between PSD95 puncta), after vs before treatment” value (neurons from responders, 7 days after treatment) was “significant increase in density” and the “intact synapses (colocalization of pre- and post-synaptic terminals), treated vs untreated” value (neurons from responders) was “significantly upregulated”.
